This note sets out measurements from ChEMBL document CHEMBL5113483, “Design and synthesis of NAD(P)H: Quinone oxidoreductase (NQO1)-activated prodrugs of 23-hydroxybetulinic acid with enhanced antitumor properties” (Eur J Med Chem, 2022).

Each structure is given as a SMILES string.

Data set [1] is described as follows: Cytotoxicity against human HFL1 cells assessed as inhibition of cell growth incubated for 72 hrs by MTT assay. In kind it is toxicity, cell-based. (In general: Formazan colour is commonly taken as a measure of viable cells.)
Data set [2] concerns HT-29. As to the kind of experiment: Antiproliferative activity against human HT-29 cells overexpressing NQO1 assessed as inhibition of cell growth incubated for 72 hrs by MTT assay. The data set is classed as functional, cell-based. Particulars: HT-29, 72 h.
A further data set deals with A549. Nature of the data set: Antiproliferative activity against human A549 cells overexpressing NQO1 assessed as inhibition of cell growth incubated for 72 hrs by MTT assay. The data set is classed as functional, cell-based. Particulars: A549, 72 h.
Data set [3] is described as follows: Selectivity index, ratio of IC50 for cytotoxicity against human HFL1 cells to IC50 for antiproliferative activity against human HT-29 cells overexpressing NQO1. The data set is classed as toxicity, cell-based. The settings on record: HFL1 cells versus HT-29 cells overexpressing NQO1, read-out: Ratio IC50.
For the next data set, the system named is NCI-H596. Nature of the data set: Antiproliferative activity against NQO1-deficient human NCI-H596 cells assessed as inhibition of cell growth incubated for 72 hrs by MTT assay. The data set is classed as functional, cell-based. The settings on record: NCI-H596, 72 h.
The nature of data set [4]: Selectivity index, ratio of IC50 for antiproliferative activity against NQO1-deficient human NCI-H596 cells to IC50 for antiproliferative activity against human HT-29 cells overexpressing NQO1. In kind it is functional.
The subject of data set [5] is HT-29. Nature of the data set: Antiproliferative activity against human HT-29 cells overexpressing NQO1 assessed as inhibition of cell growth preincubated with NQO1 inhibitor, dicoumarol for 30 mins followed by compound addition and measured after 72 hrs by MTT assay. The data set is classed as functional, cell-based.
Data set [6] is described as follows: Selectivity index, ratio of IC50 for antiproliferative activity against human HT-29 cells overexpressing NQO1 in presence of dicoumarol to antiproliferative activity against human HT-29 cells overexpressing NQO1. In kind it is functional.
The test system of data set [7] is HT-29. Nature of the data set: Antitumor activity against human HT-29 cells overexpressing NQO-1 xenografted in ICR mouse assessed as reduction in tumor weight at 30 mg/kg, ip administered every 2 days for 21 days and measured every 2 days relative to control. In kind it is functional. Details: scale not given: the % may be the effect or the level left. A general note: In xenograft studies the graft and the host belong to different species.

Data set [8] can be described thus: Toxicity in […] xenografted with human HT-29 cells overexpressing NQO-1 assessed as reduction in body weight at 30 mg/kg, ip administered for 21 days and measured every 2 days. In kind it is organism-based. The settings on record: in vivo, 504 h, time 21 day.
For data set [9], the system named is HT-29. As to the kind of experiment: Antitumor activity against human HT-29 cells overexpressing NQO-1 xenografted in ICR mouse assessed as reduction in tumor weight at 30 mg/kg, ip administered every day for 21 days and measured every 2 days relative to control. In kind it is functional. Further details: scale not given: the % may be the effect or the level left. Particulars: time 21 day.

The term IC50 denotes the midpoint of a concentration-inhibition curve. Take `C=C(C)[C@@H]1CC[C@]2(C(=O)O)CC[C@]3(C)[C@H](CC[C@@H]4[C@@]5(C)CC[C@H](OC(=O)CCC(=O)OCc6cn(C)c7c6C(=O)C(OC)=CC7=O)[C@@](C)(COC(C)=O)[C@@H]5CC[C@]43C)[C@@H]12`: the half-maximal inhibitory concentration (IC50) at 72 h in [1] was found to be 7.25 µM. Also, the IC50 is 3.69 µM in the data set with HT-29 [2], 4.52 µM in the data set on A549 and 5.74 µM in the data set with NCI-H596. Moreover, in data set [3], the selectivity ratio was 1.56. Further, in [4], the “Ratio IC50” value is 1.97.
With `C=C(C)[C@@H]1CC[C@]2(C(=O)NCCNC(=O)CCC(=O)OCc3cn(C)c4c3C(=O)C(OC)=CC4=O)CC[C@]3(C)[C@H](CC[C@@H]4[C@@]5(C)CC[C@H](OC(C)=O)[C@@](C)(COC(C)=O)[C@@H]5CC[C@]43C)[C@@H]12`, the half-inhibitory concentration (IC50) at 72 h in data set [1] is 5.78 µM. For the same compound, the concentration for half-maximal inhibition (IC50) in the data set on HT-29 [5] came to 8.02 µM; in the data set on HT-29 [2], 1.92 µM; in the data set on A549 it was 3.1 µM; with NCI-H596, 7.89 µM. For the same compound, in data set [3], the selectivity ratio came out at 4.1. Further, the “Ratio IC50” value in [4] stood at 3.01; in data set [6] it was 4.2.
As for `C=C(C)[C@@H]1CC[C@]2(C(=O)N3CCC(N4CCCCC4)CC3)CC[C@]3(C)[C@H](CC[C@@H]4[C@@]5(C)CC[C@H](O)[C@@](C)(COC(=O)CCC(=O)OCc6cn(C)c7c6C(=O)C(OC)=CC7=O)[C@@H]5CC[C@]43C)[C@@H]12`, the IC50 at 72 h in data set [1] turned out to be 6.56 µM. The IC50 in the data set with HT-29 [5] was found to be 7.11 µM; in the data set with HT-29 [2], 1.73 µM; in the data set with A549 it was 2.66 µM; with NCI-H596, 6.41 µM. In addition, the selectivity ratio in data set [3] was 3.71. Further, the entries for the “Ratio IC50” value in data set [4] and in [6] were 3.79 and 4.1, respectively.
For `C=C(C)[C@@H]1CC[C@]2(C(=O)OCCOC(=O)CCC(=O)OCc3cn(C)c4c3C(=O)C(OC)=CC4=O)CC[C@]3(C)[C@H](CC[C@@H]4[C@@]5(C)CC[C@H](NC(=O)CCC(=O)N6CCNCC6)[C@@](C)(COC(C)=O)[C@@H]5CC[C@]43C)[C@@H]12`, the IC50 at 72 h in data set [1] turned out to be 7.11 µM. Besides, the results for the concentration for half-maximal inhibition (IC50) with HT-29 [2], with A549 and with NCI-H596 were 3.63 µM, 5.17 µM and 6.44 µM, respectively. For the same compound, in [3], the selectivity ratio stood at 1.77. Besides, the “Ratio IC50” value in data set [4] came to 1.96.
With `C=C(C)[C@@H]1CC[C@]2(C(=O)O)CC[C@]3(C)[C@H](CC[C@@H]4[C@@]5(C)CC[C@H](O)[C@@](C)(COC(=O)CCCC(=O)OCc6cn(C)c7c6C(=O)C(OC)=CC7=O)[C@@H]5CC[C@]43C)[C@@H]12`, the IC50 at 72 h in data set [1] amounted to 3.23 µM. The 50% inhibitory concentration (IC50) in the data set with HT-29 [2] was found to be 1.92 µM; in the data set with A549, 2.52 µM; in the data set with NCI-H596, 4.71 µM. Further, in data set [3], the selectivity ratio was 2.46. Besides, the “Ratio IC50” value in [4] is 1.69.
Take `C=C(C)[C@@H]1CC[C@]2(C(=O)O)CC[C@]3(C)[C@H](CC[C@@H]4[C@@]5(C)CC[C@H](OC(=O)CCCC(=O)OCc6cn(C)c7c6C(=O)C(OC)=CC7=O)[C@@](C)(COC(C)=O)[C@@H]5CC[C@]43C)[C@@H]12`: the concentration for half-maximal inhibition (IC50) at 72 h in [1] turned out to be 4.09 µM. The IC50 was 3.58 µM in the data set with HT-29 [2], 4.03 µM with A549 and 4.58 µM in the data set with NCI-H596. For the same compound, the selectivity ratio in data set [3] turned out to be 1.27. Also, the “Ratio IC50” value in data set [4] is reported as 1.36.
As to `C=C(C)[C@@H]1CC[C@]2(C(=O)N(CCCN(C)C)C(=O)NCC)CC[C@]3(C)[C@H](CC[C@@H]4[C@@]5(C)CC[C@H](O)[C@@](C)(COC(=O)CCC(=O)OCc6cn(C)c7c6C(=O)C(OC)=CC7=O)[C@@H]5CC[C@]43C)[C@@H]12`, the half-maximal inhibitory concentration (IC50) at 72 h in data set [1] turned out to be 4.22 µM. Also, the IC50 in the data set with HT-29 [2] was determined as 2.28 µM; in the data set on A549, 2.32 µM; with NCI-H596 it was 2.78 µM. In addition, the selectivity ratio in data set [3] came to 1.23. Also, the “Ratio IC50” value in [4] is given as 1.85.
Turning to `O=c1[nH]cc(F)c(=O)[nH]1` [FLUOROURACIL], the Activity in the data set on HT-29 [7] is listed as 65.07%; in data set [8], “Toxic”.
As to `C=C(C)[C@@H]1CC[C@]2(C(=O)OCCOC(=O)CCC(=O)OCc3cn(C)c4c3C(=O)C(OC)=CC4=O)CC[C@]3(C)[C@H](CC[C@@H]4[C@@]5(C)CCC(=O)[C@@](C)(COC(C)=O)[C@@H]5CC[C@]43C)[C@@H]12`, in [1], the IC50 at 72 h stood at 6.53 µM. The IC50 in the data set on HT-29 [2] was found to be 3.35 µM; in the data set with A549 it was 3.04 µM; in the data set on NCI-H596, 5.64 µM. In addition, the selectivity ratio in data set [3] came to 1.68. Further, in [4], the “Ratio IC50” value worked out at 1.95.
With `C=C(C)[C@@H]1CC[C@]2(C(=O)OCCOC(=O)CCC(=O)OCc3cn(C)c4c3C(=O)C(OC)=CC4=O)CC[C@]3(C)[C@H](CC[C@@H]4[C@@]5(C)CC[C@H](O)[C@@](C)(COC(=O)C6CCNCC6)[C@@H]5CC[C@]43C)[C@@H]12`, the IC50 at 72 h in data set [1] was determined as 6.83 µM. The 50% inhibitory concentration (IC50) in the data set on HT-29 [2] worked out at 4.3 µM; in the data set on A549, 5.41 µM; with NCI-H596, 7.34 µM. Moreover, in [3], the selectivity ratio was 1.7. The “Ratio IC50” value in data set [4] came out at 1.59.
Take `C=C(C)[C@@H]1CC[C@]2(C(=O)OCCOC(=O)CCC(=O)OCc3cn(C)c4c3C(=O)C(OC)=CC4=O)CC[C@]3(C)[C@H](CC[C@@H]4[C@@]5(C)CC[C@H](OC(=O)CCC(=O)N6CCNCC6)[C@@](C)(COC(C)=O)[C@@H]5CC[C@]43C)[C@@H]12`: the concentration for half-maximal inhibition (IC50) at 72 h in [1] came to 6.79 µM. Moreover, the IC50 came out at 3.29 µM with HT-29 [2], 5.45 µM in the data set on A549 and 6.39 µM in the data set with NCI-H596. In addition, the selectivity ratio in [3] turned out to be 1.99. The “Ratio IC50” value in data set [4] is 2.12.
On to `COc1cccc2c1C(=O)c1c(O)c3c(c(O)c1C2=O)C[C@@](O)(C(=O)CO)C[C@@H]3O[C@H]1C[C@H](N)[C@H](O)[C@H](C)O1` [DOXORUBICIN], for which the half-inhibitory concentration (IC50) in the data set on HT-29 [2] was found to be 1.13 µM; in the data set on A549, 1.15 µM; with NCI-H596, 1.52 µM.
Consider `C=C(C)[C@@H]1CC[C@]2(C(=O)O)CC[C@]3(C)[C@H](CC[C@@H]4[C@@]5(C)CC[C@H](O)[C@@](C)(CO)[C@@H]5CC[C@]43C)[C@@H]12`, for which the concentration for half-maximal inhibition (IC50) at 72 h in [1] worked out at 75 µM. For the same compound, the IC50 with HT-29 [2] was found to be 54.8 µM; in the data set with A549 it was 51.4 µM; with NCI-H596, 58.1 µM. Besides, in [3], the selectivity ratio was found to be 1.06. Moreover, in the data set with HT-29 [9], the Activity turned out to be 56.81%. For the same compound, the “Ratio IC50” value in [4] amounted to 1.36.
